Target: T1, ATR kinase (full-length ATR) (Homo sapiens, UniProt Q13535)
T1 construct: Assays were carried out at 25° C. in the presence of 5 nM full-length ATR
Assay: ATR Inhibition Assay (radioactive-phosphate incorporation)
Assay type: biochemical
Conditions: Ki(app); 5 nM full-length ATR, 10 μM ATP, 800 μM target peptide, 25° C.; class symbols; read-out: ATR Inhibition Ki
Procedure: Compounds were screened for their ability to inhibit ATR kinase using a radioactive-phosphate incorporation assay. Assays were carried out in a mixture of 50 mM Tris/HCl (pH 7.5), 10 mM MgCl2 and 1 mM DTT. Final substrate concentrations were 10 μM [y-33P]ATP (3mCi 33P ATP/mmol ATP, Perkin Elmer) and 800 μM target peptide ([…]).
Assays were carried out at 25° C. in the presence of 5 nM full-length ATR. An assay stock buffer solution was prepared containing all of the reagents listed above, with the exception of ATP and the test compound of interest. […] The plate was pre-incubated for 10 minutes at 25° C. and the reaction initiated by addition of 15 μL [y-33P]ATP (final concentration 10 μM).
The reaction was stopped after […] by the addition of 30 μL 0.1M phosphoric acid containing 2 mM ATP. A multiscreen phosphocellulose filter 96-well plate (Millipore, Cat no. MAPHN0B50) was pretreated with 100 μL 0.2M phosphoric acid prior to the addition of 45 μL of the stopped assay mixture. The plate was washed with 5×200 μL 0.2M phosphoric acid.
After removing mean background values for all of the data points, Ki(app) data were calculated from non-linear regression analysis of the initial rate data using the Prism software package (GraphPad Prism version 3.0cx for Macintosh, GraphPad Software, San Diego Calif., USA).

T1 sequence (Q13535 whole entry): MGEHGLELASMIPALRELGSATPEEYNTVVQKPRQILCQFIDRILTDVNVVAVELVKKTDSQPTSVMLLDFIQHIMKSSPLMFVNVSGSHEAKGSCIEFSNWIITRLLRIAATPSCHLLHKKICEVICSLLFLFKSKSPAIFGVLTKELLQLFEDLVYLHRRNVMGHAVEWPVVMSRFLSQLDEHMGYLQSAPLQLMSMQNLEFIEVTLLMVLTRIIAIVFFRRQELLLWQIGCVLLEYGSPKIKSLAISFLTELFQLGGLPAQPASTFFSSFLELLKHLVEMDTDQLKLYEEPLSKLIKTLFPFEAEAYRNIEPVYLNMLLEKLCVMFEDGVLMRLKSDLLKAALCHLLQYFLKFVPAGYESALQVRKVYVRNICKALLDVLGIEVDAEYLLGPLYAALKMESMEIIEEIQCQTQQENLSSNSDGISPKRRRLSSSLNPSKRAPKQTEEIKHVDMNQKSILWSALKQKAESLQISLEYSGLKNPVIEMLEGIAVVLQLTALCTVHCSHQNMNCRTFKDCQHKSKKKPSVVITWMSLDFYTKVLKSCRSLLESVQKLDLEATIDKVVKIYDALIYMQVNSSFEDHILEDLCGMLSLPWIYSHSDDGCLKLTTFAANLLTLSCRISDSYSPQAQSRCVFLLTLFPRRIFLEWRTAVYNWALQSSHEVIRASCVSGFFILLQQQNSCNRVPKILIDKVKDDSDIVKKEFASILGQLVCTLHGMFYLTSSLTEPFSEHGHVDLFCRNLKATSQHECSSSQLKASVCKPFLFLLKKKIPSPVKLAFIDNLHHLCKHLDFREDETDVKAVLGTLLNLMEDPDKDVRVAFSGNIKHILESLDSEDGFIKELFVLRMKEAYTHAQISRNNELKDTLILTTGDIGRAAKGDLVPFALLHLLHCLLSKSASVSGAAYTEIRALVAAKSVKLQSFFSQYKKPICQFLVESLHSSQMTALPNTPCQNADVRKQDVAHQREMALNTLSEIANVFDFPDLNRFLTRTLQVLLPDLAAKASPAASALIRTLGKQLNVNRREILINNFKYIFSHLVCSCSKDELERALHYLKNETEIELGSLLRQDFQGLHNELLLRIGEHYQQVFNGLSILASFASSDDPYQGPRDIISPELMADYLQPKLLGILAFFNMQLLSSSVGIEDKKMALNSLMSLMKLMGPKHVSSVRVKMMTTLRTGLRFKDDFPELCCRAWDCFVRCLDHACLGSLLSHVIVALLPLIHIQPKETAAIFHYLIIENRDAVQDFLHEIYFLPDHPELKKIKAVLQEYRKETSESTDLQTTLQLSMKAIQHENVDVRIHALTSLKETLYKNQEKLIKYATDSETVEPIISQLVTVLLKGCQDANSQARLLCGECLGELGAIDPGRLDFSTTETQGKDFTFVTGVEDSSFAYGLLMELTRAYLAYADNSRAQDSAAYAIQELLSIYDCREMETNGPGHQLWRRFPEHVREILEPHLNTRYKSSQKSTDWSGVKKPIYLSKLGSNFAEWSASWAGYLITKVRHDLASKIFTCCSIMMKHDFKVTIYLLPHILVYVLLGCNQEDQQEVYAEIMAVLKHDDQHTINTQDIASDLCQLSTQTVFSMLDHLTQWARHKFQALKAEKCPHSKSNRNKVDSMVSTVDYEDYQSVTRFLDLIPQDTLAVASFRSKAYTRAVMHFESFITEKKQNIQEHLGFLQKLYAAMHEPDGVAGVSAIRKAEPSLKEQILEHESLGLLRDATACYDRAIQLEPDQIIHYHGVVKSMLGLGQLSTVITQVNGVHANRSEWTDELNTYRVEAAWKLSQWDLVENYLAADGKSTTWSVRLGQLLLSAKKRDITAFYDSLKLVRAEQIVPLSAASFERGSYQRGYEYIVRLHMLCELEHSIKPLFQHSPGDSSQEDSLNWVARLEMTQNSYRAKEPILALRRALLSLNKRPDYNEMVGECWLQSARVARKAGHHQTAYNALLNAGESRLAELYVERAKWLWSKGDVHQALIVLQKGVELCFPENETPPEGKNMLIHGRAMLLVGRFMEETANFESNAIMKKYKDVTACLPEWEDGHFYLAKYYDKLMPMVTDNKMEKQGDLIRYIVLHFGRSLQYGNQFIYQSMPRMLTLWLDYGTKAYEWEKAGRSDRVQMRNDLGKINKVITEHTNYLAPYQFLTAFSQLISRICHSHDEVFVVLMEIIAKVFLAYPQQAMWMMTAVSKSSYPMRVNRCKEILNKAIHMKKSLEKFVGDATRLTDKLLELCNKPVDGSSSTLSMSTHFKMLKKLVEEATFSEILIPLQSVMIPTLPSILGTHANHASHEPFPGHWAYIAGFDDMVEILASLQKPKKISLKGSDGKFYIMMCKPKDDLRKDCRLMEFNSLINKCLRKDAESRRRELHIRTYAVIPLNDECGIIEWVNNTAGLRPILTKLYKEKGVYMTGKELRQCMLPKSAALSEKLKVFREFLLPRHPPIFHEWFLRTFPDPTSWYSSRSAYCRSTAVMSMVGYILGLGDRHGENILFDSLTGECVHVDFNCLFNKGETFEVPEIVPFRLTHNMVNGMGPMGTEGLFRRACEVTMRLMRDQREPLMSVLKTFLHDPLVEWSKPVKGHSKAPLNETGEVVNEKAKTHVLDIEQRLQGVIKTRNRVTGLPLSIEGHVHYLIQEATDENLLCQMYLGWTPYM

Structure (SMILES)	Ki [nM]
CC(C)S(=O)(=O)c1ccc(-c2cnc3[nH]cc(C(=O)N[C@@H]4c5ccccc5C[C@@H]4O)c3n2)cc1 [Compound I-65, N-[(1R,2S)-2-hydroxyindan-1-yl]-2-(4-isopropylsulfonylphenyl)-5H-pyrrolo[2,3-b]pyrazine-7-carboxamide]	500 to 5000
Cc1cccc(CNC(=O)c2c[nH]c3ncc(-c4ccc(S(=O)(=O)C(C)C)cc4)nc23)c1Cl [Compound I-66, N-[(2-chloro-3-methyl-phenyl)methyl]-2-(4-isopropylsulfonylphenyl)-5H-pyrrolo[2,3-b]pyrazine-7-carboxamide]	< 100
Cc1ccc(Cl)cc1CNC(=O)c1c[nH]c2ncc(-c3ccc(S(=O)(=O)C(C)C)cc3)nc12 [Compound I-67, N-[(5-chloro-2-methyl-phenyl)methyl]-2-(4-isopropylsulfonylphenyl)-5H-pyrrolo[2,3-b]pyrazine-7-carboxamide]	< 100
Cc1cccc(CNC(=O)c2c[nH]c3ncc(-c4ccc(S(=O)(=O)C(C)C)cc4)nc23)c1C [Compound I-68, N-[(2,3-dimethylphenyl)methyl]-2-(4-isopropylsulfonylphenyl)-5H-pyrrolo[2,3-b]pyrazine-7-carboxamide]	< 100
CC(C)S(=O)(=O)c1ccc(-c2cnc3[nH]cc(C(=O)N[C@H]4c5ccccc5C[C@H]4O)c3n2)cc1 [Compound I-69, N-[(1S,2R)-2-hydroxyindan-1-yl]-2-(4-isopropylsulfonylphenyl)-5H-pyrrolo[2,3-b]pyrazine-7-carboxamide]	< 100
Cc1ccc(NC(=O)c2c[nH]c3ncc(-c4ccc(S(=O)(=O)C(C)C)cc4)nc23)cc1 [Compound I-70, 2-(4-isopropylsulfonylphenyl)-N-(p-tolyl)-5H-pyrrolo[2,3-b]pyrazine-7-carboxamide]	100 to 500
CC(C)S(=O)(=O)c1ccc(-c2cnc3[nH]cc(C(=O)N[C@@H](C)c4ccccc4F)c3n2)cc1 [Compound I-71, N-[(1S)-1-(2-fluorophenyl)ethyl]-2-(4-isopropylsulfonylphenyl)-5H-pyrrolo[2,3-b]pyrazine-7-carboxamide]	100 to 500
CC(C)S(=O)(=O)c1ccc(-c2cnc3[nH]cc(C(=O)Nc4ccc(F)cc4)c3n2)cc1 [Compound I-72, N-(4-fluorophenyl)-2-(4-isopropylsulfonylphenyl)-5H-pyrrolo[2,3-b]pyrazine-7-carboxamide]	100 to 500

Further lines, results first:

Ki [nM]	Structure (SMILES)
< 100	CC(C)S(=O)(=O)c1ccc(-c2cnc3[nH]cc(C(=O)Nc4cccc(F)c4)c3n2)cc1 [Compound I-73, N-(3-fluorophenyl)-2-(4-isopropylsulfonylphenyl)-5H-pyrrolo[2,3-b]pyrazine-7-carboxamide]
500 to 5000	CC(C)S(=O)(=O)c1ccc(-c2cnc3[nH]cc(C(=O)N[C@@H](C)c4ccc(F)cc4)c3n2)cc1 [Compound I-74, N-[(1S)-1-(4-fluorophenyl)ethyl]-2-(4-isopropylsulfonylphenyl)-5H-pyrrolo[2,3-b]pyrazine-7-carboxamide]
100 to 500	CC(C)S(=O)(=O)c1ccc(-c2cnc3[nH]cc(C(=O)NCc4cccc(F)c4)c3n2)cc1 [Compound I-75, N-[(3-fluorophenyl)methyl]-2-(4-isopropylsulfonylphenyl)-5H-pyrrolo[2,3-b]pyrazine-7-carboxamide]
500 to 5000	Cc1cccc(NC(=O)c2c[nH]c3ncc(-c4ccc(S(=O)(=O)C(C)C)cc4)nc23)c1 [Compound I-76, 2-(4-isopropylsulfonylphenyl)-N-(m-tolyl)-5H-pyrrolo[2,3-b]pyrazine-7-carboxamide]
100 to 500	CC(C)S(=O)(=O)c1ccc(-c2cnc3[nH]cc(C(=O)NC(CCO)c4cccc(O)c4)c3n2)cc1 (centres unmarked) [Compound I-77, N-[3-hydroxy-1-(3-hydroxyphenyl)propyl]-2-(4-isopropylsulfonylphenyl)-5H-pyrrolo[2,3-b]pyrazine-7-carboxamide]
100 to 500	CC(C)S(=O)(=O)c1ccc(-c2cnc3[nH]cc(C(=O)NC(CCO)c4ccc(F)cc4)c3n2)cc1 (centres unmarked) [Compound I-78, N-[1-(4-fluorophenyl)-3-hydroxy-propyl]-2-(4-isopropylsulfonylphenyl)-5H-pyrrolo[2,3-b]pyrazine-7-carboxamide]

Reference: US9096602B2, “Substituted pyrrolo[2,3-B]pyrazines as ATR kinase inhibitors” (Vertex Pharmaceuticals Incorporated, priority 2011, dated 2015)
